Reference: article PMC7291522 (Thrombosis Journal, 2020)
Values belong to the compound of their own block, whether it stands above or below them.

Key:
[1] = system: healthy elderly Japanese male subjects; experiment: Safety: adverse events in the clinical pharmacology study; details: 30 mg edoxaban alone, 24 participants
[2] = Plasma edoxaban pharmacokinetics (LC-MS/MS, noncompartmental analysis); details: 30 mg edoxaban alone, Day 3; for AUC / Cmax / Tmax: male, human, in vivo, 30 mg; for AUC: AUCtau,ss of edoxaban; for Cmax: Cmax,ss of edoxaban; for Tmax: tmax,ss of edoxaban
Protocol: Plasma samples were obtained by centrifugation, and the samples were immediately frozen at − 20 °C or lower.
Summary statistics were calculated for baseline and postdose values for the primary endpoint of BT and secondary endpoints of PD indices (PT, aPTT, F1 + 2, PRU) for each target population. […] 8.1 based on Model 1200 (Extravascular). AUCtau,ss was calculated by the linear-Log trapezoidal method.
For the secondary endpoints analysis, we used the logarithmically converted PK parameters (Cmax,ss, AUCtau,ss, tmax,ss) as dependent variables in a linear mixed model with fixed and variable effects.

platelet aggregation = experiment: P2Y12 reaction units (PRU), VerifyNow system; assay type: in vivo, human; details: 30 mg edoxaban alone, Day 3
Protocol: (§1) Blood was collected in a vacuum blood collection tube containing 3.2% sodium citrate, and the schedule for the blood sample collection is shown in Table 1. Blood coagulation marker PT was measured by PT reagent Thrombocheck-PT in system CS-200i (Sysmex Corporation, Japan); aPTT by aPTT reagent HemosIL SynthASil in system ACL TOP Base (IL, Japan; Instrumentation Laboratory, USA) and F1 + 2 by ELISA Enzygnost F1 + 2 monoclonal reagent in system Behring ELISA Processor III and DiaSorin (BIT Analytical Instruments GmbH, Germany). These assays were carried out at LSI Medience Corporation (Tokyo, Japan). We measured PRU with VerifyNow system (Instrumentation Laboratory, Bedford, MA, USA) at Sumida Hospital.

blood coagulation = experiment: Activated partial thromboplastin time (aPTT), HemosIL SynthASil reagent; assay type: in vivo, human; details: 30 mg edoxaban, Day 3
Protocol: as §1

[3] = system: healthy elderly Japanese male subjects; experiment: Bleeding time (BT) by the Ivy method; details: 30 mg edoxaban once daily for 3 days, Day 3, 3 h after administration
Excerpt: (§2) This study was a randomized, open-label, parallel-group, repeated-dose study conducted at a single center.
(§3) We measured BT by the Ivy method [12] using a needle type of BD Microtainer Contact-Activated Lancet device (Becton, Dickinson and Company, USA). The incision was made in the lateral aspect of the forearm by puncturing at one arbitrary site with the device. After the incision, we blotted the blood every 30 s with filter paper until the bleeding reached hemostasis and recorded the time from the puncture to the end of bleeding. When the time to hemostasis exceeded 10 min, it was recorded as such, ending the observation. […] Baseline BT was measured on the day of admission at approximately the same time of day as the BT evaluations on Day 3 and Day 8, 3 hours after the administration of study drug(s).
(§4) For the primary endpoint analysis, a logarithmically converted value of BT for each sample was the dependent variable in a linear mixed model with fixed and random effects.

[4] = system: healthy elderly Japanese male subjects; details: in vivo
Excerpt: as §2, §3, §4

tmax,ss of edoxaban, Mean (SD) ([2]; Group 2, n = 12): 1.0 (0.84) h | AUC ([2]; Mean (SD), Group 1, n = 12): 1060 ng·h/mL | AUC ([2]; Mean (SD), Group 2, n = 12): 1070 ng·h/mL | AUC ([2]; Median (IQR), Group 1, n = 12): 1020 ng·h/mL | AUC ([2]; Median (IQR), Group 2, n = 12): 992 ng·h/mL | Cmax ([2]; Mean (SD), Group 1, n = 12): 216 ng/mL | Cmax ([2]; Mean (SD), Group 2, n = 12): 191 ng/mL | Cmax ([2]; Median (IQR), Group 1, n = 12): 200 ng/mL | Cmax ([2]; Median (IQR), Group 2, n = 12): 170 ng/mL | Tmax ([2]; Mean (SD), Group 1, n = 12): 72 min | Tmax ([2]; Median (IQR), Group 1, n = 12): 45 min | Tmax ([2]; Median (IQR), Group 2, n = 12): 30 min | Bleeding time, Mean (SD) ([3]; Group 1, n = 12): 3.5 (0.6) min | Bleeding time, Median (IQR) ([3]; Group 1, n = 12): 3.5 (3.0–4.0) min | Bleeding time, Mean (SD) ([3]; Group 2, n = 12): 4.7 (1.6) min | Bleeding time, Median (IQR) ([3]; Group 2, n = 12): 4.5 (3.3–6.0) min
Structure (SMILES): CN1CCc2nc(C(=O)N[C@@H]3C[C@@H](C(=O)N(C)C)CC[C@@H]3NC(=O)C(=O)Nc3ccc(Cl)cn3)sc2C1 [Edoxaban, edoxaban]
Positive results in the fecal occult blood test (number) [1]: four | Effect on PRU (platelet aggregation): essentially had no effect | aPTT, mean (blood coagulation; Group 1, baseline 31.9): 38.0 s | aPTT, mean (blood coagulation; Group 2, baseline 34.2): 39.9 s

Dose dependence of the effect of prasugrel on BT [4]: dose-dependent
Structure (SMILES): CC(=O)Oc1cc2c(s1)CCN(C(C(=O)C1CC1)c1ccccc1F)C2 (stereo not drawn) [prasugrel]
